Measured values: PubChem BioAssay (NCI)
Values joined by “and” are separate entries in the source; they are usually repeats but may differ in a detail not shown here. Equal entries are not always repeated.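 Dose response: 5 concentrations. Exposure: 48 h. Format: 96-well plates. Endpoint: linear interpolation; highest concentration if not reached. GI50 is the concentration that inhibits growth by half. TGI denotes the concentration required for complete inhibition of growth.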

Experiments:
Test in all cases: inhibition of tumour cell growth, NCI panel, 48 h
CCRF-CEM leukemia = tested on: CCRF-CEM leukemia
SN12C renal = tested on: SN12C renal
NCI-H522 lung = tested on: NCI-H522 lung
K-562 leukemia = tested on: K-562 leukemia
NCI-H460 lung = tested on: NCI-H460 lung
HT29 colon = tested on: HT29 colon
SK-MEL-2 melanoma = tested on: SK-MEL-2 melanoma
HCT-15 colon = tested on: HCT-15 colon
NCI/ADR-RES ovarian = tested on: NCI/ADR-RES ovarian
HOP-62 NSCLC = tested on: HOP-62 NSCLC

SMILES | TGI (CCRF-CEM leukemia) | TGI (SN12C renal) | TGI (NCI-H522 lung) | TGI (K-562 leukemia) | TGI (NCI-H460 lung) | TGI (HT29 colon) | TGI (SK-MEL-2 melanoma) | TGI (HCT-15 colon) | TGI (NCI/ADR-RES ovarian) | TGI (HOP-62 NSCLC) | GI50 (NCI-H522 lung) | GI50 (CCRF-CEM leukemia) | GI50 (K-562 leukemia) | GI50 (HT29 colon) | GI50 (HOP-62 NSCLC) | GI50 (SK-MEL-2 melanoma) | GI50 (HCT-15 colon) | GI50 (NCI/ADR-RES ovarian)
CCCCCCCCCCCC1=C(O)C(=O)C(CC2=C(O)C(=O)C(CCCCCCCCCCC)=C(O)C2=O)=C(O)C1=O | 64.4 µM | > 100 µM | > 100 µM | > 100 µM | > 100 µM | > 100 µM | > 100 µM | > 100 µM | > 100 µM | – | – | – | – | – | – | – | – | –
Cc1ccc(S(=O)(=O)N/N=c2/sc3ccccc3n2C)cc1 | > 100 µM | > 100 µM | > 100 µM | > 100 µM | > 100 µM | > 100 µM | > 100 µM | > 100 µM | > 100 µM | > 100 µM | – | – | – | – | – | – | – | –
O=C(/C=C/c1ccccc1)c1cc(CN2CCOCC2)c(O)c(CN2CCOCC2)c1 | 16.7 µM | 25.3 µM | > 100 µM | 36.2 µM | 19.4 µM | > 100 µM | 61.8 µM | 29.7 µM | > 100 µM | 39.3 µM | – | – | – | – | – | – | – | –
COC(=O)CCC(C)[C@H]1CCC2C3CC[C@@H]4CC5(CC[C@]4(C)C3C[C@H](OC(C)=O)[C@@]21C)OOC1(CCCCC1)OO5 (stereo not given in full) | > 100 µM | > 100 µM | 40.5 µM | > 100 µM | > 100 µM | > 100 µM | 52.2 µM | > 100 µM | > 100 µM | > 100 µM | – | – | – | – | – | – | – | –
Cc1cccc2c1nc1n2C(=O)c2ccccc2-1 | > 100 µM | > 100 µM | > 100 µM | > 100 µM | > 100 µM | > 100 µM | > 100 µM | > 100 µM | > 100 µM | – | – | – | – | – | – | – | – | –
COc1ccccc1N=Nc1c(O)ccc2ccccc12 | > 100 µM | > 100 µM | > 100 µM | > 100 µM | 38.1 µM | > 100 µM | > 100 µM | > 100 µM | > 100 µM | 30.9 µM and 34.6 µM | > 100 µM and 41.8 µM | – | – | – | – | – | – | –
[C-]#[O+].[Cl][Sn]([Cl])[Cl].[Cl][Sn]([Cl])[Cl].[Pt].c1cnc2c(c1)ccc1cccnc12 | > 29.8 µM | > 61.2 µM | > 100 µM | > 48.3 µM | 23.5 µM | > 100 µM | 18.6 µM | > 44 µM | 10.1 µM | 45.3 µM | – | – | – | – | – | – | – | –
C[n+]1c2ccccc2n2c3ccccc3c(NCCCn3ccnc3)c(C#N)c21 | – | 4.09 µM | 2.18 µM | > 26 µM | 3.63 µM | 37.9 µM | 4.71 µM | 12 µM | > 93.5 µM | > 27 µM | – | – | – | – | – | – | – | –
COc1ccc(S(=O)(=O)NC(CCC(=O)NC(N)=O)C(=O)NC(N)=O)cc1 (stereo not given) | > 100 µM | > 100 µM | > 100 µM | > 100 µM | > 100 µM | > 100 µM | > 100 µM | > 100 µM | > 100 µM | > 100 µM | – | – | – | – | – | – | – | –
O=C1c2ccccc2-c2c1c1ccccc1c(=O)n2CCCNCCNCCCn1c2c(c3ccccc3c1=O)C(=O)c1ccccc1-2 | 0.498 µM | 1.81 µM | – | > 100 µM | – | – | – | 0.56 µM | 1.75 µM | 0.582 µM | 0.151 µM | 0.0142 µM | < 0.0335 µM | < 0.01 µM | < 0.0172 µM | 2.02 µM | 0.0831 µM | 0.358 µM
CC(=O)O[C@H]1CC[C@@H](OC(C)=O)[C@H]2[C@H](O)[C@H](O)[C@@H]1n1c(=O)n(-c3ccccc3)c(=O)n12 | > 100 µM | > 100 µM | > 100 µM | > 100 µM | – | > 100 µM | > 100 µM | > 100 µM | > 100 µM | > 100 µM | – | – | – | – | – | – | – | –
CC(C)Oc1cccc(N2C(CCc3c[nH]c4ccc(Br)cc34)=NS(=O)(=O)c3cnccc32)c1 | > 100 µM | > 100 µM | > 100 µM | > 100 µM | > 100 µM | > 100 µM | > 100 µM | > 100 µM | > 100 µM | > 100 µM | – | – | – | – | – | – | – | –
O=c1[nH]c2c(Nc3c4ccccc4nc4ccccc34)c([N+](=O)[O-])c(Nc3c4ccccc4nc4ccccc34)c([N+](=O)[O-])c2[nH]1 | 6.02 µM | 8.8 µM | 2.82 µM | 11.7 µM | > 22.5 µM | 3.11 µM | 3.93 µM | 6.98 µM | 2.24 µM | 20.2 µM | – | – | – | – | – | – | – | –
COc1cc(C=O)cc(C=Nc2ccc(Br)cc2)c1O | 27.7 µM | 32.7 µM | 23.5 µM | > 100 µM | 37.5 µM | > 100 µM | 17.6 µM | > 100 µM | > 100 µM | 55.9 µM | – | – | – | – | – | – | – | –
Nc1c(C(=O)O)c2ccc([N+](=O)[O-])cc2c(=O)n1-c1nc2ccccc2s1 | > 100 µM | > 100 µM | > 100 µM | > 100 µM | > 100 µM | > 100 µM | > 100 µM | > 100 µM | > 100 µM | > 100 µM | – | – | – | – | – | – | – | –
COC1=C(OC)C(=O)C(Cc2c(Cl)nc3sccn23)=C(C)C1=O | 5.44 µM | 26.2 µM | 20.2 µM | 34.1 µM | 25.4 µM | 27.7 µM | 38.7 µM | 27.2 µM | 20 µM | 31.1 µM | – | – | – | – | – | – | – | –
COc1ccc(O[C@H](CO)C[C@@H]2COC(C)(C)O2)cc1 | > 100 µM | > 100 µM | > 100 µM | > 100 µM | > 100 µM | > 100 µM | > 100 µM | > 100 µM | > 100 µM | > 100 µM | – | – | – | – | – | – | – | –
CCOC(=O)N1CCNCCN(C(=O)OCC)CCNCC1 | > 100 µM | > 100 µM | > 100 µM | > 100 µM | > 100 µM | > 100 µM | > 100 µM | > 100 µM | > 100 µM | > 100 µM | – | – | – | – | – | – | – | –
CC(C)OC(=O)C(NC(=O)C(CC(=O)OCc1ccccc1)NC(=O)OCc1ccccc1)NC(=O)C1C(C)(C)CCC1(C)C (stereo not given) | > 41.2 µM | 15.1 µM | 24.1 µM | 15.9 µM | 31.6 µM | 14.3 µM | 58.4 µM | 30.7 µM | 21.2 µM | 18.7 µM | – | – | – | – | – | – | – | –
Cc1nc(C(=Nc2ccc(Br)cc2)Nn2cnnc2)no1 | > 100 µM | – | > 100 µM | > 100 µM | > 100 µM | > 100 µM | > 100 µM | > 100 µM | > 100 µM | > 100 µM | – | – | – | – | – | – | – | –
